According to patent US7879315B2, “Agent for dissolving dental calculi and dental caries” (Showa Yakuhin Kako Co., Ltd., priority 2002, dated 2011):

Experiment: Dissolution of dental calculus by immersion (weight after treatment)

For `O=C(O)CC(O)(CC(=O)O)C(=O)O` [citric acid], the “weight of dental calculus after the treatment” value (“weight of dental calculus” below) (1.3 mg calculus immersed 13 minutes in 1 ml of 10% aqueous solution) was 0.65 mg.

With `O=C([O-])CN(CCN(CC(=O)[O-])CC(=O)O)CC(=O)O.[Na+].[Na+]` [disodium edetate] the “weight of dental calculus” value (0.50 mg calculus immersed 44 minutes in 1 ml of 14.3% solution) was 0.25 mg.

For `O=C(O)CO` [glycolic acid], the “weight of dental calculus” value (0.9 mg calculus immersed 9 minutes in 1 ml of 10% aqueous solution) was 0.5 mg.

With `O=C(O)CC(O)C(=O)O` (stereo not shown) [malic acid] the “weight of dental calculus” value (1.2 mg calculus immersed 13 minutes in 1 ml of 10% aqueous solution) was 0.6 mg.

For `O=P(O)(O)O` [phosphoric acid], the “weight of dental calculus” value (1.2 mg calculus immersed 7 minutes and 30 seconds in 1 ml of 10% aqueous solution) was 0.6 mg and the “weight of dental calculus” value (1.4 mg calculus immersed 8 minutes and 30 seconds in 1 ml of 2% aqueous solution) was 0.7 mg.

In the case of `O=P(O)(O)O[C@H]1[C@H](OP(=O)(O)O)[C@@H](OP(=O)(O)O)[C@H](OP(=O)(O)O)[C@@H](OP(=O)(O)O)[C@H]1OP(=O)(O)O` [phytic acid], the “weight of dental calculus” value (3.0 mg calculus immersed 5 minutes in 1 ml aqueous solution containing 0.5 g phytic acid (15% aqueous solution)) is reported as 2.6 mg and the “weight of dental calculus” value (3.0 mg calculus immersed 10 minutes in 1 ml aqueous solution containing 0.5 g phytic acid (15% aqueous solution)) is reported as 2.1 mg.

With `O=P(O)(O)OP(=O)(O)O` [pyrophosphoric acid] the “weight of dental calculus” value (2.2 mg calculus immersed 7 minutes in 1 ml of 10% aqueous solution) was 1.1 mg.

With polyphosphoric acid the “weight of dental calculus” value (1.5 mg calculus immersed 7 minutes and 30 seconds in 1 ml of 10% aqueous solution) was 0.7 mg.
